In data set [1] the target is T1, rat calcitonin (a) receptor (Rattus norvegicus, UniProt P32214).
T1 construct: expressed in transfected cells; host or cells: BHK tk'ts 13
T1 sequence (P32214 25-479 isoform P32214-2 limits assumed): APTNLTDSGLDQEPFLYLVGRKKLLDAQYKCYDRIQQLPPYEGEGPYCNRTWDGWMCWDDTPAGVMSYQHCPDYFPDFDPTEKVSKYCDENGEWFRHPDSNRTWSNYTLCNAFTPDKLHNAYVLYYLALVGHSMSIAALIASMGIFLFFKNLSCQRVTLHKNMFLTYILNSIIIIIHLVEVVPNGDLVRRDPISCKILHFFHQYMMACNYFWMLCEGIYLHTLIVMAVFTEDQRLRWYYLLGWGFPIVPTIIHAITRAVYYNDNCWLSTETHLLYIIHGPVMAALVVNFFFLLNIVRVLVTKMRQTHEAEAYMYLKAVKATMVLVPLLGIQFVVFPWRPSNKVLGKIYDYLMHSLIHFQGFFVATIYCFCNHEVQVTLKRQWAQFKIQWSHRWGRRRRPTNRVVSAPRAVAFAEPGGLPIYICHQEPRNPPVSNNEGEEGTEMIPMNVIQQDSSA
Description: Assay (II)b functional cAMP FlashPlate assay, rat calcitonin receptor. The settings on record: Table 11; read-out: CTa receptor rat EC50. Type of data set: cell-based. In outline:
(§1)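 BHK tk'ts 13 cells transiently transfected with rat calcitonin(a) receptor, alone or with rat RAMP3 (amylin 3(a)), were stimulated 24 hours later with sample for 30 min in buffer containing IBMX. cAMP measured by competitive radioactive FlashPlate assay, scintillation read after 3 h detection incubation.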

Data set [2] is described as follows: Assay (III) ThT fibrillation assay for physical stability. Type of data set: physicochemical. In outline:
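Freshly prepared formulations, pH-adjusted, with 1 μM ThT; four or eight replicates incubated at 37 °C under 960 rpm orbital shaking. Fluorescence (ex 444/em 485 nm) read every 20 min; […]. Peptide concentration measured by RP-HPLC before and after the run.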

The target in data set [3] is T2, rat amylin 3(a) receptor (rat calcitonin(a) receptor + rat RAMP3) (Rattus norvegicus, UniProt P32214+Q9JJ73).
T2 construct: expressed in transfected cells; host or cells: BHK tk'ts 13
T2 sequence (P32214 25-479 isoform P32214-2 limits assumed): T1 sequence (P32214 25-479 isoform P32214-2 limits assumed)
T2 sequence (Q9JJ73 23-147 partner): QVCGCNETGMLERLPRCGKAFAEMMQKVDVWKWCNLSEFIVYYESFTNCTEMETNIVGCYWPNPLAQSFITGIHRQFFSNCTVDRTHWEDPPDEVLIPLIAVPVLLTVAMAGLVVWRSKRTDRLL
Description: Assay (II)b functional cAMP FlashPlate assay, rat amylin receptor. The settings on record: Table 11. Type of data set: cell-based. In a few lines: as §1

Starred links: 1 amine or outer side, 2 acyl side, 3 side chain; linkers in the order of their positions; H or OH if unused. Positions of bridges follow the written chain, without caps; N, C: chain ends. Residues, ends and D or L forms follow the SMILES beside them. *: point of attachment. C20 diacid = O=C(O)CCCCCCCCCCCCCCCCCCC(=O)*; γGlu = O=C(O)[C@H](CCC(=O)[*:2])N[*:1]

With `CC(C)C[C@H](NC(=O)[C@H](CCCNC(=N)N)NC(=O)[C@H](CCC(N)=O)NC(=O)[C@@H](NC(=O)[C@H](C)NC(=O)[C@@H]1CSSC[C@H](NC(=O)[C@H](CCCCN)NC(=O)CC[C@H](NC(=O)CCCCCCCCCCCCCCCCCCC(=O)O)C(=O)O)C(=O)N[C@@H](CC(N)=O)C(=O)N[C@@H]([C@@H](C)O)C(=O)N[C@@H](C)C(=O)N[C@@H]([C@@H](C)O)C(=O)N1)[C@@H](C)O)C(=O)N[C@@H](C)C(=O)N[C@@H](CCC(=O)O)C(=O)N[C@@H](Cc1ccccc1)C(=O)N[C@@H](CC(C)C)C(=O)N[C@@H](CCCNC(=N)N)C(=O)N[C@@H](Cc1c[nH]cn1)C(=O)N[C@@H](CO)C(=O)N[C@@H](CO)C(=O)N[C@@H](CC(N)=O)C(=O)N[C@@H](CC(N)=O)C(=O)N[C@@H](Cc1ccccc1)C(=O)NCC(=O)N[C@@H](C)C(=O)N1CCC[C@H]1C(=O)N[C@@H](CC(C)C)C(=O)N[C@@H](CO)C(=O)N[C@@H](CO)C(=O)N[C@H](C(=O)N[C@@H](CC(N)=O)C(=O)N[C@H](C(=O)NCC(=O)N[C@@H](CO)C(=O)N[C@@H](Cc1c[nH]cn1)C(=O)N[C@H](C(=O)N[C@@H](Cc1ccc(O)cc1)C(N)=O)[C@@H](C)O)C(C)C)[C@@H](C)O` [Example 65, N-alpha-[(S)-4-Carboxy-4-(19-carboxynonadecanoylamino)butyryl]-[Glu14,Arg17,Ala25,Pro26,Ser28,Ser29,His35]-pramlintide] ({C20 diacid-γGlu}-KCNTATCATQRLAEFLRHSSNNFGAPLSSTNVGSHTY-NH2; disulfide 2-7 (inferred); C-terminus assumed), the EC50 (commonly the midpoint of the concentration-response curve) in data set [1] is 5.35 nM; in data set [3], 1.33 nM. In addition, the “ThT pH 4.0 lag time” value in data set [2] (Table 8) and in data set [2] (ThT fibrillation assay) was above 45 h each time. Also, in data set [2] (ThT fibrillation assay), the “ThT pH 4.0 lag time (h)” value is listed as above 45 h.
As for `CC[C@H](C)[C@H](NC(=O)[C@@H]1CCCN1C(=O)CNC(=O)[C@H](Cc1ccccc1)NC(=O)[C@H](CC(N)=O)NC(=O)[C@H](CC(N)=O)NC(=O)[C@H](CO)NC(=O)[C@H](CO)NC(=O)[C@H](Cc1c[nH]cn1)NC(=O)[C@H](Cc1c[nH]cn1)NC(=O)[C@H](CC(C)C)NC(=O)[C@H](Cc1ccccc1)NC(=O)[C@H](CCC(=O)O)NC(=O)[C@H](C)NC(=O)[C@H](CC(C)C)NC(=O)[C@H](CCCNC(=N)N)NC(=O)[C@H](CCC(N)=O)NC(=O)[C@@H](NC(=O)[C@H](C)NC(=O)[C@@H]1CSSC[C@H](NC(=O)[C@H](CCCCN)NC(=O)[C@H](Cc2c[nH]cn2)NC(=O)CC[C@H](NC(=O)CCCCCCCCCCCCCCCCCCC(=O)O)C(=O)O)C(=O)N[C@@H](CC(N)=O)C(=O)N[C@@H]([C@@H](C)O)C(=O)N[C@@H](C)C(=O)N[C@@H]([C@@H](C)O)C(=O)N1)[C@@H](C)O)C(=O)N[C@@H](CC(C)C)C(=O)N1CCC[C@H]1C(=O)N1CCC[C@H]1C(=O)N[C@H](C(=O)N[C@@H](CC(N)=O)C(=O)N[C@H](C(=O)NCC(=O)N[C@@H](CO)C(=O)N[C@@H](Cc1c[nH]cn1)C(=O)N[C@H](C(=O)N[C@@H](Cc1ccc(O)cc1)C(N)=O)[C@@H](C)O)C(C)C)[C@@H](C)O` [Example 66, N-alpha-[(S)-4-Carboxy-4-(19-carboxynonadecanoylamino)butyryl]-His-[Glu14,His17,His35]-pramlintide] ({C20 diacid-γGlu}-HKCNTATCATQRLAEFLHHSSNNFGPILPPTNVGSHTY-NH2; disulfide 3-8 (inferred); C-terminus assumed), the EC50 in data set [1] stood at 0.656 nM. In addition, in data set [2] (ThT fibrillation assay), the “ThT pH 4.0 lag time” value was above 45 h and the “ThT pH 4.0 lag time (h)” value is above 45 h. Also, in data set [3], the EC50 came out at 0.305 nM.
With `CC[C@H](C)[C@H](NC(=O)[C@@H]1CCCN1C(=O)CNC(=O)[C@H](Cc1ccccc1)NC(=O)[C@H](CC(N)=O)NC(=O)[C@H](CC(N)=O)NC(=O)[C@H](CO)NC(=O)[C@H](CO)NC(=O)[C@H](Cc1c[nH]cn1)NC(=O)[C@H](CCCNC(=N)N)NC(=O)[C@H](CC(C)C)NC(=O)[C@H](Cc1ccccc1)NC(=O)[C@H](CCC(=O)O)NC(=O)[C@H](C)NC(=O)[C@H](CC(C)C)NC(=O)[C@H](CCCNC(=N)N)NC(=O)[C@H](CCC(N)=O)NC(=O)[C@@H](NC(=O)[C@H](C)NC(=O)[C@@H]1CSSC[C@H](NC(=O)CNC(=O)CC[C@H](NC(=O)CCCCCCCCCCCCCCCCCCC(=O)O)C(=O)O)C(=O)N[C@@H](CC(N)=O)C(=O)N[C@@H]([C@@H](C)O)C(=O)N[C@@H](C)C(=O)N[C@@H]([C@@H](C)O)C(=O)N1)[C@@H](C)O)C(=O)N[C@@H](CC(C)C)C(=O)N1CCC[C@H]1C(=O)N1CCC[C@H]1C(=O)N[C@H](C(=O)N[C@@H](CC(N)=O)C(=O)N[C@H](C(=O)NCC(=O)N[C@@H](CO)C(=O)N[C@@H](CC(N)=O)C(=O)N[C@H](C(=O)N1CCC[C@H]1C(N)=O)[C@@H](C)O)C(C)C)[C@@H](C)O` [Example 88, N-alpha-[(S)-4-Carboxy-4-(19-carboxynonadecanoylamino)butyryl]-[Gly1,Glu14,Arg17,Pro37]-pramlintide] ({C20 diacid-γGlu}-GCNTATCATQRLAEFLRHSSNNFGPILPPTNVGSNTP-NH2; disulfide 2-7 (inferred); C-terminus assumed), the half-maximal effective concentration (EC50) stood at 0.37 nM in data set [1] and 0.3 nM in data set [3]. Moreover, the “ThT pH 4.0 lag time” value in data set [2] (Table 8), in data set [2] (Table 9) and in data set [2] (ThT fibrillation assay) was above 45 h throughout. Further, the “ThT pH 4.0 lag time (h)” value in data set [2] (ThT fibrillation assay) was above 45 h.
As to `CC[C@H](C)[C@H](NC(=O)[C@@H]1CCCN1C(=O)CNC(=O)[C@H](Cc1ccccc1)NC(=O)[C@H](CC(N)=O)NC(=O)[C@H](CC(N)=O)NC(=O)[C@H](CO)NC(=O)[C@H](CO)NC(=O)[C@H](CCCNC(=N)N)NC(=O)[C@H](Cc1c[nH]cn1)NC(=O)[C@H](CC(C)C)NC(=O)[C@H](Cc1ccccc1)NC(=O)[C@H](CCC(=O)O)NC(=O)[C@H](C)NC(=O)[C@H](CC(C)C)NC(=O)[C@H](CCCNC(=N)N)NC(=O)[C@H](CCC(N)=O)NC(=O)[C@@H](NC(=O)[C@H](C)NC(=O)[C@@H]1CSSC[C@H](NC(=O)[C@H](CCC(=O)O)NC(=O)CC[C@H](NC(=O)CCCCCCCCCCCCCCCCCCC(=O)O)C(=O)O)C(=O)N[C@@H](CC(N)=O)C(=O)N[C@@H]([C@@H](C)O)C(=O)N[C@@H](C)C(=O)N[C@@H]([C@@H](C)O)C(=O)N1)[C@@H](C)O)C(=O)N[C@@H](CC(C)C)C(=O)N1CCC[C@H]1C(=O)N1CCC[C@H]1C(=O)N[C@H](C(=O)N[C@@H](CC(N)=O)C(=O)N[C@H](C(=O)NCC(=O)N[C@@H](CO)C(=O)N[C@@H](CC(N)=O)C(=O)N[C@H](C(=O)N1CCC[C@H]1C(N)=O)[C@@H](C)O)C(C)C)[C@@H](C)O` [Example 10, N-alpha-[(S)-4-Carboxy-4-(19-carboxynonadecanoylamino)butyryl]-[Glu1,Glu14,His17,Arg18,Pro37]-pramlintide] ({C20 diacid-γGlu}-ECNTATCATQRLAEFLHRSSNNFGPILPPTNVGSNTP-NH2; disulfide 2-7), the EC50 amounted to 0.806 nM in data set [1] and 0.374 nM in data set [3].
The like results for `CC[C@H](C)[C@H](NC(=O)[C@@H]1CCCN1C(=O)CNC(=O)[C@H](Cc1ccccc1)NC(=O)[C@H](CC(N)=O)NC(=O)[C@H](CC(N)=O)NC(=O)[C@H](CO)NC(=O)[C@H](CO)NC(=O)[C@H](Cc1c[nH]cn1)NC(=O)[C@H](Cc1c[nH]cn1)NC(=O)[C@H](CC(C)C)NC(=O)[C@H](Cc1ccccc1)NC(=O)[C@H](CCC(=O)O)NC(=O)[C@H](C)NC(=O)[C@H](CC(C)C)NC(=O)[C@H](CCCNC(=N)N)NC(=O)[C@H](CCC(N)=O)NC(=O)[C@@H](NC(=O)[C@H](C)NC(=O)[C@@H]1CSSC[C@H](NC(=O)[C@H](Cc2c[nH]cn2)NC(=O)CC[C@H](NC(=O)CCCCCCCCCCCCCCCCCCC(=O)O)C(=O)O)C(=O)N[C@@H](CC(N)=O)C(=O)N[C@@H]([C@@H](C)O)C(=O)N[C@@H](C)C(=O)N[C@@H]([C@@H](C)O)C(=O)N1)[C@@H](C)O)C(=O)N[C@@H](CC(C)C)C(=O)N1CCC[C@H]1C(=O)N1CCC[C@H]1C(=O)N[C@H](C(=O)N[C@@H](CC(N)=O)C(=O)N[C@H](C(=O)NCC(=O)N[C@@H](CO)C(=O)N[C@@H](CC(N)=O)C(=O)N[C@H](C(=O)N[C@@H](Cc1ccc(O)cc1)C(N)=O)[C@@H](C)O)C(C)C)[C@@H](C)O` [Example 18, N-alpha-[(S)-4-Carboxy-4-(19-carboxynonadecanoylamino)butyryl]-[His1,Glu14,His17]-pramlintide] ({C20 diacid-γGlu}-HCNTATCATQRLAEFLHHSSNNFGPILPPTNVGSNTY-NH2; disulfide 2-7 (inferred); C-terminus assumed) were, in that order, 1.17 nM and 0.187 nM.

The record behind these values is patent US8722849B2, “Polypeptides” (Novo Nordisk A/S, priority 2011, dated 2014).
